Data published in patent US8614221B2, “Inhibitors of Akt activity” (Merck Sharp & Dohme Corp., priority 2009, dated 2013).

Experiments:
Akt1 kinase = biological target: T1, Akt1 kinase (Homo sapiens, UniProt P31749); assay: Akt kinase assay (HTRF, GSK-derived biotinylated peptide substrate); assay type: biochemical
T1 construct: a middle T tag was added to the 5′ end of the full length Akt1 gene; middle T tag (EYMPME) (N); biotin tag (from pS2neo vector); made in house; host or cells: Drosophila S2 cells
T1 sequence (P31749 whole entry): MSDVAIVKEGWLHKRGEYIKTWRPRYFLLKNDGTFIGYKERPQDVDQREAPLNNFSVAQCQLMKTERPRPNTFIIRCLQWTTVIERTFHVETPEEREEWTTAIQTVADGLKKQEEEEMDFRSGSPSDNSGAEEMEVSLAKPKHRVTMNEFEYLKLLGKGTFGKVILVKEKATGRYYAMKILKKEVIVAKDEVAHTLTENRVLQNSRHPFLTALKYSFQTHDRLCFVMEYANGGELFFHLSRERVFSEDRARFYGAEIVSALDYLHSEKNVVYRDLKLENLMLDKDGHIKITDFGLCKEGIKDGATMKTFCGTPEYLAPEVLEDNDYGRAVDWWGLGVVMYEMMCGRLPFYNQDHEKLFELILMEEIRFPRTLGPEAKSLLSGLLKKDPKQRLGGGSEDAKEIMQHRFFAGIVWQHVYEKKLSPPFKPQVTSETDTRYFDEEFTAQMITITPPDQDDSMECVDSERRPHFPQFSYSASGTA
Experimental: (§1) Activated Akt isoforms and pleckstrin homology domain deletion constructs were assayed utilizing a GSK-derived biotinylated peptide substrate. The extent of peptide phosphorylation was determined by Homogeneous Time Resolved Fluorescence (HTRF) using a lanthanide chelate(Lance)-coupled monoclonal antibody specific for the phosphopeptide in combination with a streptavidin-linked allophycocyanin (SA-APC) fluorophore which will bind to the biotin moiety on the peptide. When the Lance and APC are in proximity (i.e. bound to the same phosphopeptide molecule), a non-radiative energy transfer takes place from the Lance to the APC, followed by emission of light from APC at 665 nm.
(§2) Materials required for the assay:
(§3) A. Activated Akt isozyme or pleckstrin homology domain deleted construct
(§4) B. Akt peptide substrate: GSK3α (S21) Peptide #3928 biotin-GGRARTSSFAEPG (SEQ. ID. NO. 15), Macromolecular Resources.
(§5) C. Lance labeled anti-phospho GSK3α monoclonal antibody (Cell Signaling Technology, clone #27).
(§6) D. SA-APC (Prozyme catalog no. MSS lot #896067).
(§7) E. Microfluor®B U Bottom Microtiter Plates (Dynex Technologies, Catalog no. 7205).
(§8) F. Discovery® HTRF Microplate Analyzer, Packard Instrument Company.
(§9) G. 100× Protease Inhibitor Cocktail (PIC): 1 mg/mL benzamidine, 0.5 mg/mL pepstatin, 0.5 mg/mL leupeptin, 0.5 mg/mL aprotinin.
(§10) H. 10× Assay Buffer: 500 mM HEPES, pH 7.5, 1% PEG, […], 1 mM EGTA, 1% BSA, 20 mM θ-Glycerol phosphate.
(§11) I. Quench Buffer: 50 mM HEPES pH 7.3, 16.6 mM EDTA, 0.1% BSA, 0.1% Triton X-100, 0.17 nM Lance labeled monoclonal antibody clone #27, 0.0067 mg/mL SA-APC
(§12) J. ATP/MgCl2 working solution: 1× Assay buffer, 1 mM DTT, 1×PIC, 125 mM KCl, 5% Glycerol, 25 mM MgCl2, 375 μM ATP
(§13) K. Enzyme working solution: 1× Assay buffer, 1 mM DTT, 1×PIC, 5% Glycerol, active Akt. The final enzyme concentrations were selected so that the assay was in a linear response range.
(§14) L. Peptide working solution: 1× Assay buffer, 1 mM DTT, 1×PIC, 5% Glycerol, 2 μM GSK3 biotinylated peptide #3928
(§15) The reaction is assembled by adding 16 μL of the ATP/MgCl2 working solution to the appropriate wells of a 96-well microliter plate. Inhibitor or vehicle (1.0 μL) is added followed by 10 μL of peptide working solution. The reaction is started by adding 13 μL of the enzyme working solution and mixing. The reaction is allowed to proceed for 50 min and then stopped by the addition of 60 μL HTRF quench buffer. The stopped reactions were incubated at room temperature for at least 30 min and then read on the Discovery instrument.

Akt2 kinase = biological target: T2, Akt2 kinase (Homo sapiens, UniProt P31751); assay: as above; assay type: biochemical
T2 construct: a middle T tag was added to the 5′ end of the full length Akt2 using the PCR primer; middle T tag (EYMPME) (N); biotin tag (from pS2neo vector); made in house; host or cells: Drosophila S2 cells
T2 sequence (P31751 whole entry): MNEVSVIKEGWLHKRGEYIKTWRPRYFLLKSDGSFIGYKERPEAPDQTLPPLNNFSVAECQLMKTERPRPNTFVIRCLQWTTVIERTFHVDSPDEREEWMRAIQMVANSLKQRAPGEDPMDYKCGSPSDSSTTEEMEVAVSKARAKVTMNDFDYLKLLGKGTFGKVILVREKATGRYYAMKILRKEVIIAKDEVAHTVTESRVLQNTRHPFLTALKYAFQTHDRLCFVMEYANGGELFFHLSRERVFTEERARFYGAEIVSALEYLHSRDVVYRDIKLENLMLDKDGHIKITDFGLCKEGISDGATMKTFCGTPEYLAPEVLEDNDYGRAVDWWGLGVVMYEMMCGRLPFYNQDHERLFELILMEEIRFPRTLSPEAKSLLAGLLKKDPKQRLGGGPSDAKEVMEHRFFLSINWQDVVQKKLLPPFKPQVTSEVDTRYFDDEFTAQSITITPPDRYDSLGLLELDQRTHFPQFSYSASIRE
Experimental: as §1, §2, §3, §4, §5, §6, §7, §8, §9, §10, §11, §12, §13, §14, §15

Cc1cc2ncc3cc(-c4ccccc4)c(-c4ccc([C@]5(N)C[C@@](O)(C6CC6)C5)cc4)nc3n2n1 [EXAMPLE 1-9, trans-3-amino-1-cyclopropyl-3-[4-(2-methyl-7-phenylpyrazolo[1,5-a]pyrido[3,2-e]pyrimidin-8-yl)phenyl]cyclobutanol]
IC50 (Akt1 kinase): 4 nM
IC50 (Akt2 kinase): 29 nM

NC1(c2ccc(-c3nc4c(ccn5c(C6CC6)nnc45)cc3-c3ccccc3)cc2)CCC1 [EXAMPLE 9-2, 1-{4-[3-cyclopropyl-8-phenyl[1,2,4]triazolo[4,3-h]-1,7-naphthyridin-9-yl)phenyl}cyclobutanamine]
IC50 (Akt1 kinase): 32.7 nM
IC50 (Akt2 kinase): 33.8 nM

c1ccc(-c2cc3cnc4nc(N5CCOCC5)nn4c3nc2-c2ccc(CN3CCC(c4nnc(-c5ccccn5)[nH]4)CC3)cc2)cc1 [EXAMPLE 12-3, 2-morpholin-4-yl-7-phenyl-8-(4-{[4-(5-pyridin-2-yl-4H-1,2,4-triazol-3-yl)piperidin-1-yl]methyl}phenyl)pyrido[3,2-e][1,2,4]triazolo[1,5-a]pyrimidine]
IC50 (Akt1 kinase): 4.6 nM
IC50 (Akt2 kinase): 33.8 nM

C=CCNC(=O)C1CCN(Cc2ccc(-c3nc4c(cnc5cc(C)nn54)cc3-c3ccccc3)cc2)CC1 [EXAMPLE 15-3, 2-methyl-7-phenyl-8-(4-{[4-(prop-2-en-1-ylcarbamoyl)piperidin-1-yl]methyl}phenyl)pyrazolo[1,5-a]pyrido[3,2-e]pyrimidine]
IC50 (Akt1 kinase): 37.2 nM
IC50 (Akt2 kinase): 578 nM
